Literature values as cited in paper PMC9395488, “First-in-human study of IM156, a novel potent biguanide oxidative phosphorylation (OXPHOS) inhibitor, in patients with advanced solid tumors” (Investigational New Drugs, 2022).

What was measured:
[1] = system: patients (pts) with advanced solid tumors; conditions: cited from earlier work
A549 = system: A549; design: method as in ImmunoMet, 2018; conditions: in A549; ref ImmunoMet, 2018; read-out: OXPHOS inhibition IC50; cited from earlier work
OXPHOS = system: OXPHOS; design: method as in ImmunoMet, 2018; conditions: at the same concentration; ref ImmunoMet, 2018; cited from earlier work
glioblastoma (GSC11) = system: glioblastoma (GSC11); design: method as in ImmunoMet, 2018; conditions: glioblastoma animal model, control group 47 days; ref ImmunoMet, 2018; cited from earlier work
Glioblastoma cells = system: Glioblastoma cells; design: method as in ImmunoMet, 2018; conditions: 15 µM IM156, 500 µM temozolomide, ref ImmunoMet, 2018; cited from earlier work

SMILES: Cc1nc(-c2nc(-c3ccc(OC(F)(F)F)cc3)no2)nn1Cc1cccc(N2CCC(S(C)(=O)=O)CC2)c1 [IACS-010759]
- patients with PR, percent [1]: 5%
- patients with SD [1]: 8 patients
- patients with SD, percent [1]: 38%
- Grade ≥ 3 AEs, percent of patients ([1]; human, in vivo): 43%
- diarrhea of any grade, percent of patients ([1]; human, in vivo): 10%
- elevations of blood lactate, percent of patients ([1]; human, in vivo): 71%
- nausea of any grade, percent of patients ([1]; human, in vivo): 67%
- vomiting of any grade, percent of patients ([1]; human, in vivo): 29%
- patients with PR ([1]; patient with prostate cancer): one

SMILES: CN(C)C(=N)N=C(N)N [metformin, reference compound]
- IC50 (A549): ~500 µM

SMILES: [H]/N=C(/N)N/C(=N/[H])NCCc1ccccc1 [phenformin, reference compound]
- time until OXPHOS inhibition starts to show (OXPHOS): ≥ 6 h

SMILES: Cn1nnc2c(C(N)=O)ncn2c1=O [temozolomide, reference compound]
- median survival time (glioblastoma (GSC11)): 58 days
- neurosphere size (Glioblastoma cells): decreased
